From patent US11592438B2, “Device and method for force phenotyping of cells for high-throughput screening and analysis” (THE REGENTS OF THE UNIVERSITY OF CALIFORNIA, priority 2014, dated 2023)
No end group written: not given here.

Key:
HeLa cells = assay: Dose-response force phenotyping of HeLa cells in well-based embodiment; format: cell-based, human; conditions: increased concentration, FIG. 12A
Text: The image processing software 36 identifies all instances of a given molecular pattern 16 in an image stack and determines how many cells (e.g., 0, 1, or 2+) are adhered to each pattern 16 based on images of those cells 11 with stained nuclei. A MATLAB script opens the image files and pairs the stained nuclei images (e.g., DAPI images) with the fluorescent images of the patterns 16 (e.g., FITC images). The image processing software 36 calculates characteristic pixel length(s) of a given pattern 16 for the cases of no cells adhered and one (1) cell adhered. The ‘FITC’ images may be linearly scaled up with, for example, the MATLAB function ‘imresize’ to improve resolution of these measurements. For those patterns with zero cells adhered thereto, the center of each pattern 16 may be determined using binary center-of-mass calculations. […] Patterns 16 with two or more nuclei are not analyzed. For each processed pattern 16 (those that are crosses or “X” shaped), the diagonal distance in pixels is measured between the calculated center and the bright edge of the pattern 16 in each direction as illustrated in FIG. 10. […] These lengths are normalized to the median of those measured in patterns 16 with no cells (nominally 0 pixel deformations which is used as a control) and a relative distribution plot for patterns with one (1) cell is generated (see FIG. 8). […]

[1] = tested on: primary human airway smooth muscle cells; assay: Pattern contraction / force generation screening of airway smooth muscle cells in 96 well plate; format: cell-based; conditions: for contraction of ASM cells (pattern deflection): ASM cells exposed to the compound
Text: The image processing software 36 identifies all instances of a given molecular pattern 16 in an image stack and determines how many cells (e.g., 0, 1, or 2+) are adhered to each pattern 16 based on images of those cells 11 with stained nuclei. A MATLAB script opens the image files and pairs the stained nuclei images (e.g., DAPI images) with the fluorescent images of the patterns 16 (e.g., FITC images). The image processing software 36 calculates characteristic pixel length(s) of a given pattern 16 for the cases of no cells adhered and one (1) cell adhered. The ‘FITC’ images may be linearly scaled up with, for example, the MATLAB function ‘imresize’ to improve resolution of these measurements. For those patterns with zero cells adhered thereto, the center of each pattern 16 may be determined using binary center-of-mass calculations. For those patterns 16 with one (1) cell adhered thereto, a series of binary dilation and erosion operations, followed by a binary center-of-mass calculation on patterns is performed. The erosion/dilation procedure is used to remove the potential asymmetry in the pattern 16 arising from cell-induced deformations that would otherwise impact the location of the center of mass. Patterns 16 with two or more nuclei are not analyzed. For each processed pattern 16 (those that are crosses or “X” shaped), the diagonal distance in pixels is measured between the calculated center and the bright edge of the pattern 16 in each direction as illustrated in FIG. 10. […] These measurements are stored, converted to microns based on the magnification used (typically 10×). These lengths are normalized to the median of those measured in patterns 16 with no cells (nominally 0 pixel deformations which is used as a control) and a relative distribution plot for patterns with one (1) cell is generated (see FIG. 8). Cropped images of each pattern 16 screened by the image processing software 36 in a given location and the images of the corresponding cell nuclei on those patterns 16 are saved and may be reviewed if an execution error is suspected. FIG. 8 illustrates examples of cropped DAPI and FITC images.
FIGS. 6A and 6B illustrate another embodiment of the invention. In this embodiment, a substrate 40 such as a plate having apertures 42 formed therein (non-tapered) is adhered to the layer 12 such that individual wells 44 are formed over the surface of the layer 12 with each well 44 containing a plurality of fluorescent patterns 16. […]
These patterns 16 are then used as the controls. For example, similarly shaped patterns with no cells 11 thereon may have their respective dimensions measured and a baseline established that is representative of no deflection in the pattern 16. […]

## Cc1ccc2c(c1)C(=O)C1(O)CCN(c3ccccc3)C1=N2 (centres unmarked) [blebbistatin]
HeLa cells
  deflection as function of concentration: less deflection

## enodthelin-1 (CSCSSLMDKECVYFCHLDIIW; ends and bridges not checked; cysteine pairing not given here; UniProt P05305 53-73, looked up) [contractile stimulus for ASM cells]
[1]; FIG. 11A
  contraction of ASM cells (pattern deflection): contraction

## NCCc1c[nH]cn1 [histamine]
[1]; FIG. 11A
  contraction of ASM cells (pattern deflection): contraction

## O=S(=O)(c1cccc2c(I)cccc12)N1CCCNCC1 [ML-7]
[1]; added after contraction by acetylcholine, enodthelin-1 or histamine, FIG. 11A
  relaxation of smooth muscle contraction (reduction in deflection amount): shown to relax smooth muscle contraction

## CC(C)(C)NCC(O)c1ccc(O)c(CO)c1 (centres unmarked) [albuterol]
[1]; added after contraction in response to histamine, FIG. 11B
  relaxation of ASM cells: relaxation
